According to patent publication US20240182420A1, “MICROBIOCIDAL ISONICOTINIC AMIDE DERIVATIVES” (SYNGENTA CROP PROTECTION AG, priority 2021, published 2024):

Assays:
[1] = system: Botryotinia fuckeliana syn. Botrytis cinerea; experiment: Botryotinia fuckeliana syn. Botrytis cinerea (grey mold on tomato), tomato plants; type: in vivo; conditions: tomato plants cv. Roter Gnom, inoculated two days after application, leaf area covered by disease 5-6 days after application
Description: 4-week old tomato plants cv. Roter Gnom are treated sprayed in a spray chamber with the formulated test compound diluted in water. The test plants are inoculated by spraying them with a spore suspension two days after application. The inoculated test plants are incubated at 20° C. and 95% rh in a greenhouse and the percentage leaf area covered by disease is assessed when an appropriate level of disease appears on untreated check plants (5-6 days after application).

[2] = system: Botryotinia fuckeliana syn. Botrytis cinerea; experiment: Botryotinia fuckeliana syn. Botrytis cinerea (gray mould), liquid culture growth inhibition; type: cell-based; conditions: PDB nutrient broth, 24° C., 72 hrs, photometric, vs untreated control
Description: (§1) Conidia of the fungus from cryogenic storage were directly mixed into nutrient broth (PDB potato dextrose broth). A DMSO solution of the test compounds was placed into a microtiter plate (96-well format) and the nutrient broth containing the fungal spores was added to it. The test plates were incubated at 24° C. and the inhibition of growth was determined photometrically after 72 hrs.

[3] = system: Glomerella lagenarium syn Colletotrichum lagenarium; experiment: Glomerella lagenarium syn. Colletotrichum lagenarium (anthracnose), liquid culture growth inhibition; type: cell-based; conditions: Colletotrichum orbiculare, PDB nutrient broth, 24° C., 72 hrs, 620 nm, vs untreated control
Description: as §1, with “hrs at 620 nm.” for “hrs.”

[4] = system: Monographella nivalis syn. Microdochium nivale, Fusarium nivale; experiment: Monographella nivalis syn. Microdochium nivale (snow mould, foot rot), liquid culture growth inhibition; type: cell-based; conditions: PDB nutrient broth, 24° C., 72 hrs, 620 nm, vs untreated control
Description: as §1, with “hrs at 620 nm.” for “hrs.”

| SMILES | pest or weed control at 200 ppm [1] | inhibition of growth at 20 ppm [2] | inhibition of growth at 20 ppm [3] | inhibition of growth at 20 ppm [4] |
| --- | --- | --- | --- | --- |
| Cc1cccc(Oc2cnc(Cl)cc2C(=O)NCCc2ccc(Cl)cc2Cl)c1 [Compound 1.4, 2-chloro-N-[2-(2,4-dichlorophenyl)ethyl]-5-(3-methylphenoxy)pyridine-4-carboxamide] | ≥ 50% | ≥ 80% |  |  |
| O=C(NCC(F)c1ccc(Cl)cc1Cl)c1c(F)cncc1Oc1cccc(C2CC2)c1 (centres unmarked) [Compound 1.6, 3-(3-cyclopropyl-phenoxy)-N-[2-(2,4-dichlorophenyl)-2-fluoro-ethyl]-5-fluoro-pyridine-4-carboxamide] | ≥ 50% | ≥ 80% | ≥ 80% |  |
| O=C(NCC(F)c1ccc(Cl)cc1Cl)c1cc(C(F)(F)F)ncc1Oc1cccc(C2CC2)c1 (centres unmarked) [Compound 1.9, 5-(3-cyclopropyl-phenoxy)-N-[2-(2,4-dichlorophenyl)-2-fluoro-ethyl]-2-(trifluoromethyl) pyridine-4-carboxamide] | ≥ 50% | ≥ 80% | ≥ 80% |  |
| CS(=O)(=O)c1cc(C(=O)NCC(F)c2ccc(Cl)cc2Cl)c(Oc2cccc(C3CC3)c2)cn1 (centres unmarked) [Compound 1.10, 5-(3-cyclopropyl-phenoxy)-N-[2-(2,4-dichlorophenyl)-2-fluoro-ethyl]-2-methylsulfonyl-pyridine-4-carboxamide] | ≥ 50% | ≥ 80% | ≥ 80% |  |
| O=C(NCC(F)c1ccc(Cl)cc1Cl)c1ccncc1Oc1cccc(C2CC2)c1 (centres unmarked) [Compound 1.11, 3-(3-cyclopropyl-phenoxy)-N-[2-(2,4-dichlorophenyl)-2-fluoro-ethyl]pyridine-4-carboxamide] | ≥ 50% |  | ≥ 80% |  |
| O=C(NCCc1ccc(Cl)cc1Cl)c1cc(Cl)ncc1Oc1cccc(C2CC2)c1 [Compound 1.15, 2-chloro-5-(3-cyclopropyl-phenoxy)-N-[2-(2,4-dichlorophenyl)ethyl]pyridine-4-carboxamide] | ≥ 50% | ≥ 80% | ≥ 80% |  |
| O=C(NCC(F)c1ccc(Cl)cc1Cl)c1cc(Cl)ncc1Oc1cccc(C2CC2)c1 (centres unmarked) [Compound 1.16, 2-chloro-5-(3-cyclopropyl-phenoxy)-N-[2-(2,4-dichlorophenyl)-2-fluoro-ethyl]pyridine-4-carboxamide] | ≥ 50% | ≥ 80% | ≥ 80% |  |
| O=C(NCCc1ccc(Cl)cc1Cl)c1c(Cl)cncc1Oc1cccc(C2CC2)c1 [Compound 1.21, 3-chloro-5-(3-cyclopropyl-phenoxy)-N-[2-(2,4-dichlorophenyl)ethyl]pyridine-4-carboxamide] | ≥ 50% | ≥ 80% | ≥ 80% |  |
| O=C(NCC(F)c1ccc(Cl)cc1Cl)c1cc(C2CC2)ncc1Oc1cccc(C2CC2)c1 (centres unmarked) [Compound 1.22, 2-cyclopropyl-5-(3-cyclopropyl-phenoxy)-N-[2-(2,4-dichlorophenyl)-2-fluoro-ethyl]pyridine-4-carboxamide] | ≥ 50% | ≥ 80% | ≥ 80% |  |
| O=C(NCC1(c2ccc(F)cc2)CCC1)c1cc(Cl)ncc1Oc1cccc(C2CC2)c1 [Compound 1.28, 2-chloro-5-(3-cyclopropyl-phenoxy)-N-[[1-(4-fluorophenyl)cyclobutyl]methyl] pyridine-4-carboxamide] |  |  |  | ≥ 80% |
| COc1ccc(CCNC(=O)c2cc(Cl)ncc2Oc2cccc(C3CC3)c2)cc1 [Compound 1.35, 2-chloro-5-(3-cyclopropyl-phenoxy)-N-[2-(4-methoxyphenyl)ethyl]pyridine-4-carboxamide] | ≥ 50% | ≥ 80% | ≥ 80% |  |
| Cc1ccccc1CCNC(=O)c1cc(Cl)ncc1Oc1cccc(C2CC2)c1 [Compound 1.36, 2-chloro-5-(3-cyclopropyl-phenoxy)-N-[2-(o-tolyl)ethyl]pyridine-4-carboxamide] |  |  |  | ≥ 80% |
| C#Cc1cccc(Oc2cnc(C)cc2C(=O)NCC(F)c2ccc(C)cc2C)c1 (centres unmarked) [Compound 1.38, N-[2-(2,4-dimethylphenyl)-2-fluoro-ethyl]-5-(3-ethynylphenoxy)-2-methyl-pyridine-4-carboxamide] | ≥ 50% | ≥ 80% |  |  |
| C#Cc1cccc(Oc2cnc(Br)cc2C(=O)NCC(F)c2ccc(C)cc2C)c1 (centres unmarked) [Compound 1.43, 2-bromo-N-[2-(2,4-dimethylphenyl)-2-fluoro-ethyl]-5-(3-ethynylphenoxy) pyridine-4-carboxamide] | ≥ 50% | ≥ 80% | ≥ 80% |  |
| COc1ccc(CCNC(=O)c2cc(Cl)ncc2Oc2ccccc2)cc1OC [Compound 1.44, 2-chloro-N-[2-(3,4-dimethoxyphenyl)ethyl]-5-phenoxy-pyridine-4-carboxamide] |  |  |  | ≥ 80% |
| Cc1cccc(Oc2cnc(Cl)cc2C(=O)NCCc2cccc(Cl)c2)c1 [Compound 1.46, 2-chloro-N-[2-(3-chlorophenyl)ethyl]-5-(3-methylphenoxy) pyridine-4-carboxamide] |  |  | ≥ 80% | ≥ 80% |
| O=C(NC1(Cc2ccccc2)CC1)c1cc(Cl)ncc1Oc1cccc(C2CC2)c1 [Compound 1.49, N-(1-benzylcyclopropyl)-2-chloro-5-(3-cyclopropylphenoxy) pyridine-4-carboxamide] |  |  |  | ≥ 80% |
| Cc1cc(C)cc(CCNC(=O)c2cc(Cl)ncc2Oc2cccc(C3CC3)c2)c1 [Compound 1.50, 2-chloro-5-(3-cyclopropylphenoxy)-N-[2-(3,5-dimethylphenyl)ethyl]pyridine-4-carboxamide] |  |  |  | ≥ 80% |
| O=C(NCC(F)c1ccc(F)cc1F)c1cc(Cl)ncc1Oc1cccc(C2CC2)c1 (centres unmarked) [Compound 1.58, 2-chloro-5-(3-cyclopropyl-phenoxy)-N-[2-(2,4-difluorophenyl)-2-fluoro-ethyl]pyridine-4-carboxamide] | ≥ 50% | ≥ 80% | ≥ 80% |  |
| Cc1ccc(C(F)CNC(=O)c2cc(C)ncc2Oc2cccc(C3CC3)c2)c(Cl)c1 (centres unmarked) [Compound 1.60, N-[2-(2-chloro-4-methyl-phenyl)-2-fluoro-ethyl]-5-(3-cyclopropyl-phenoxy)-2-methyl-pyridine-4-carboxamide] | ≥ 50% | ≥ 80% | ≥ 80% | ≥ 80% |
| COc1cccc(Oc2cnc(Cl)cc2C(=O)NCC(F)c2ccc(Cl)cc2Cl)c1 (centres unmarked) [Compound 1.61, 2-chloro-N-[2-(2,4-dichlorophenyl)-2-fluoro-ethyl]-5-(3-methoxyphenoxy) pyridine-4-carboxamide] | ≥ 50% | ≥ 80% | ≥ 80% |  |
| N#Cc1ccc(Oc2cnc(Cl)cc2C(=O)NCC(F)c2ccc(Cl)cc2Cl)cc1 (centres unmarked) [Compound 1.63, 2-chloro-5-(4-cyanophenoxy)-N-[2-(2,4-dichlorophenyl)-2-fluoro-ethyl]pyridine-4-carboxamide] |  |  | ≥ 80% | ≥ 80% |
| Cc1ccc(C(F)CNC(=O)c2cc(Cl)ncc2Oc2cccc(C3CC3)c2)c(C)c1 (centres unmarked) [Compound 1.78, 2-chloro-5-(3-cyclopropyl-phenoxy)-N-[2-(2,4-dimethylphenyl)-2-fluoro-ethyl]pyridine-4-carboxamide] |  | ≥ 80% | ≥ 80% | ≥ 80% |
| CCc1ccc(C(F)CNC(=O)c2cc(Cl)ncc2Oc2cccc(C3CC3)c2)c(F)c1 (centres unmarked) [Compound 1.80, 2-chloro-5-(3-cyclopropyl-phenoxy)-N-[2-(4-ethyl-2-fluoro-phenyl)-2-fluoro-ethyl]pyridine-4-carboxamide] | ≥ 50% | ≥ 80% | ≥ 80% |  |
| C#Cc1ccc(C(F)CNC(=O)c2cc(Cl)ncc2Oc2cccc(C3CC3)c2)c(F)c1 (centres unmarked) [Compound 1.82, 2-chloro-5-(3-cyclopropyl-phenoxy)-N-[2-(4-ethynyl-2-fluoro-phenyl)-2-fluoro-ethyl]pyridine-4-carboxamide] | ≥ 50% | ≥ 80% | ≥ 80% |  |
| O=C(NCC(F)c1ccc(Cl)cc1Cl)c1c(Oc2cccc(C3CC3)c2)cncc1Oc1cccc(C2CC2)c1 (centres unmarked) [Compound 1.84, 3,5-bis(3-cyclopropyl-phenoxy)-N-[2-(2,4-dichlorophenyl)-2-fluoro-ethyl]pyridine-4-carboxamide] | ≥ 50% | ≥ 80% | ≥ 80% | ≥ 80% |
| COc1cncc(Oc2cccc(C3CC3)c2)c1C(=O)NCC(F)c1ccc(Cl)cc1Cl (centres unmarked) [Compound 1.91, 3-(3-cyclopropyl-phenoxy)-N-[2-(2,4-dichlorophenyl)-2-fluoro-ethyl]-5-methoxy-pyridine-4-carboxamide] | ≥ 50% | ≥ 80% | ≥ 80% |  |
